Laboratory results published in patent US20150232856A1, “TELOMERASE INHIBITORS FOR USE IN THERAPY” (AGENCY FOR SCIENCE, TECHNOLOGY AND RESEARCH, priority 2012, published 2015).

Test system: A2780cp cells
Experiment: Colony formation assay
Type: cell-based, human
Conditions: significantly rescued by ectopic expression of p65 (FIGS. 1G & H)
Method: F. Colony formation assay: A2780cp cells were infected with p65 expressing or GFP (Cntrl) virus followed by plating 1000 cells per condition. The cells were then treated with 2 μM MST312 or DMSO control for 2 weeks followed by staining with crystal violet after 12 days. Number of colonies was counted from duplicate plates.

sh-hTERT: shRNA directed against hTERT, SEQ ID NO: 48 (CATTTCATCAGCAAGTTTGGA)
colony forming ability of cells: reduction in colony forming ability
